Assay results published in ChEMBL document CHEMBL1123160, “(1-Amino-2-propenyl) phosphonic acid, an inhibitor of alanine racemase and D-alanine:D-alanine ligase” (J Med Chem, 1986).
pKi: −log10 of the molar value.

How the values were obtained:
Enterococcus faecalis = assay: (§1) The compound was tested for the inhibition of D-alanine:D-alanine ligase from streptococcus faecalis
[1] = as §1; design: species or system Enterococcus faecalis

## C=CC(N)P(=O)(O)O (configuration not stated)
Enterococcus faecalis
  Km: 7 mM
[1]
  pKi: 2.30
